Experimental data published in patent US4606860A, “Rhodanines useful as a therapeutic agent for diabetic complications” (Kaken Pharmaceutical Co., Ltd., priority 1984, dated 1986).
Where a name gives a salt, the structure may show the parent alone. Read-outs that look alike come from different tables or passages of the source.

Experiments:
[1] = molecular target: T1, aldose reductase (Rattus norvegicus, UniProt P07943); test: Aldose reductase inhibiting activity (crude enzyme from rat lens, NADPH absorbance at 340 nm); format: biochemical, rat (Wistar strain); details: DL-glyceraldehyde 10 mM, NADPH 0.104 mM, pH 6.2, Table 4, read-out: IC50 (50% inhibition concentration), aldose reductase
T1 construct: the supernatant was used as the crude enzyme solution; from tissue; host or cells: lens of male Wistar rats (10,000 g supernatant of homogenate, crude enzyme)
Protocol: Thus, Wistar strain male rats were sacrificed by decapitation, the lenses were excised and homogenized with a 0.1 M phosphate buffer [pH 6.8; containing 1 mM of mercaptoethanol and 1 mM of nicotinamide-adenine dinucleotide phosphate (NADP)]. The homogenate was then centrifuged at 10,000 g for 15 minutes and the supernatant was used as the crude enzyme solution.
To this buffer solution, there was added 15 μl of each of solutions of each test compound in varied concentrations, followed by addition of 25 μl of the crude enzyme solution prepared in advance, to thereby initiate the reaction.

[2] = Acute toxicity in mice (oral); format: in vivo; details: mouse, in vivo, male ddY mice, 2 weeks
From the text: (§1) The acute toxicity in mice was examined with the rhodanine derivative (I) of the present invention.

[3] = tested on: male ddY strain mice; test: Acute toxicity in mice (oral); format: in vivo; details: 2 weeks
From the text: as §1

[4] = tested on: thrombin-induced aggregation of washed rabbit platelets; test: Platelet aggregation inhibiting activity (thrombin-stimulated washed rabbit platelets, aggregometer); format: cell-based, rabbit (albino, white local breed); details: for IC50: Oryctolagus cuniculus, Platelet; for platelet aggregation inhibiting activity, in words: comparison with other compounds or Dipyridamole (Persantine)
Protocol: The platelets were suspended in a 15 mM Tris-hydrochloric acid buffer in a final concentration of 6×10^8 cells/ml (Tris: tris(hydroxymethyl)aminomethane). Each test compound was added thereto and incubation was carried out at 37° C. for 2 minutes. Then, the platelets were stimulated by addition of thrombin (final concentration 0.2 unit/ml; made by Mochida Pharmaceutical Co.) and the aggregation inhibiting activity was estimated by observation of the aggregation reaction using an aggregometer (made by Briston Co.).

[5] = 2 min, read-out: IC50 (50 % inhibition concentration), platelet aggregation
[6] = washed rabbit platelets, read-out: concentration inhibiting thrombin-induced aggregation by 50%
[7] = 2 min, washed rabbit platelets 6×10^8 cells/ml, thrombin 0.2 unit/ml, 37° C., 2 minutes, Table 3, read-out: IC50 (50 % inhibition concentration), platelet aggregation

SMILES	IC50 [1] [nM]	IC50 [4, 6] [nM]	platelet aggregation inhibiting activity, in words [4]	further results
COc1cccc(NC=C2SC(=S)N(CC(=O)O)C2=O)c1 [Compound No. 7, 3-Carboxymethyl-5-m-methoxyphenylaminomethylidene-rhodanine]	26	300000	almost comparable in said activity to Dipyridamole	LD50 at 336 h [2]: > 4000 mg/kg; deaths noted up to a dose of 4 g/kg body weight [3]: no deaths were noted; IC50 [4, 5]: 310000 nM
COc1ccccc1NC=C1SC(=S)N(CC(=O)O)C1=O [Compound No. 8, 3-Carboxymethyl-5-o-methoxyphenylaminomethylidenerhodanine]	50	300000	almost comparable in said activity to Dipyridamole	IC50 [4, 7]: 310000 nM
O=C(O)CN1C(=O)C(=CNc2cccc(Cl)c2)SC1=S [Compound No. 9, 3-Carboxymethyl-5-m-chlorophenylaminomethylidenerhodanine]	23	300000	almost comparable in said activity to Dipyridamole	LD50 at 336 h [2]: > 4000 mg/kg; deaths noted up to a dose of 4 g/kg body weight [3]: no deaths were noted
O=C(O)CN1C(=O)C(=CNc2ccc(Br)cc2)SC1=S [Compound No. 10, 3-Carboxymethyl-5-p-bromophenylaminomethylidenerhodanine]	50	300000	almost comparable in said activity to Dipyridamole	IC50 [4, 7]: 300000 nM
Cc1cccc(NC=C2SC(=S)N(CC(=O)O)C2=O)c1 [Compound No. 11, 3-Carboxymethyl-5-m-methylphenylaminomethylidenerhodanine]	36	300000	almost comparable in said activity to Dipyridamole	LD50 at 336 h [2]: > 4000 mg/kg; deaths noted up to a dose of 4 g/kg body weight [3]: no deaths were noted; IC50 [4, 5]: 320000 nM
O=C(O)CN1C(=O)C(=CN2CCOCC2)SC1=S [Compound No. 12, 3-Carboxymethyl-5-morpholinomethylidenerhodanine]	340			
CN1CCN(C=C2SC(=S)N(CC(=O)O)C2=O)CC1 [Compound No. 13, 3-Carboxymethyl-5-N-methylpiperazinomethylidenerhodanine]	200			
CN1CCCN(C=C2SC(=S)N(CC(=O)O)C2=O)CC1 [Compound No. 14, 3-Carboxymethyl-5-N-methylhomopiperazinomethylidenerhodanine]	1300			
O=C(O)CN1C(=O)C(=CNc2ccccc2-c2ccccc2)SC1=S [Compound No. 15, 3-Carboxymethyl-5-(2-biphenylyl)aminomethylidenerhodanine]	150			LD50 at 336 h [2]: > 4000 mg/kg; deaths noted up to a dose of 4 g/kg body weight [3]: no deaths were noted; IC50 [4, 5]: 410000 nM
OCCN(CCO)c1nc(N2CCCCC2)c2nc(N(CCO)CCO)nc(N3CCCCC3)c2n1 [Dipyridamole, reference compound]				IC50 [4, 7]: 200000 nM

Second part, led by results:

IC50 [1] [nM]	SMILES	IC50 [4, 6] [nM]	platelet aggregation inhibiting activity, in words [4]	further results
1300	CNC=C1SC(=S)N(CC(=O)O)C1=O [Compound No. 1, 3-Carboxymethyl-5-methylaminomethylidenerhodanine]			
650	CN(C)C=C1SC(=S)N(CC(=O)O)C1=O [Compound No. 2, 3-Carboxymethyl-5-dimethylaminomethylidenerhodanine]			
700	O=C(O)CN1C(=O)C(=CNCCO)SC1=S [Compound No. 3, Ethanolamine salt of 3-Carboxymethyl-5-hydroxyethylaminomethylidenerhodanine]			
300	C=CCNC=C1SC(=S)N(CC(=O)O)C1=O [Compound No. 4, 3-Carboxymethyl-5allylaminomethylidenerhodanine]			
600	CC(C)CNC=C1SC(=S)N(CC(=O)O)C1=O [Compound No. 5, 3-Carboxymethyl-5-isobutylaminomethylidenerhodanine]			
280	CCCCCCNC=C1SC(=S)N(CC(=O)O)C1=O [Compound No. 6, 3-Carboxymethyl-5-hexylaminomethylidenerhodanine]			
